# Paper PMC7914897, “Cytotoxic Potential of a-Azepano- and 3-Amino-3,4-SeCo-Triterpenoids” (International Journal of Molecular Sciences, 2021)
# Like-named read-outs stand apart in the source and are kept apart here.
# What was measured:
# SW-620 (Colon cancer) = experiment: NCI-60 screen (SRB, 48 h); details: Homo sapiens
# PC-3 (Prostate cancer) = experiment: NCI-60 screen (SRB, 48 h); details: Homo sapiens
# COLO 205 (Colon cancer) = experiment: NCI-60 screen (SRB, 48 h); details: Homo sapiens
# [1] = system: NCI-H322M (NSC lung cancer); experiment: NCI-60 screen (SRB, 48 h); details: Homo sapiens
# BT-549 (Breast cancer) = experiment: NCI-60 screen (SRB, 48 h); assay type: cell-based; details: Homo sapiens
# Ovarian Cancer subpanel = experiment: NCI-60 screen, subpanel; details: Homo sapiens
# SK-MEL-2 (Melanoma) = experiment: NCI-60 screen (SRB, 48 h); details: Homo sapiens
# ACHN (Renal cancer) = experiment: NCI-60 screen (SRB, 48 h)
# A498 (Renal cancer) = experiment: NCI-60 screen (SRB, 48 h); details: Homo sapiens
# [2] = system: panel of approximately 60 cancer cell lines; experiment: NCI-60 screen (SRB, 48 h), full panel
# SK-OV-3 (Ovarian cancer) = experiment: NCI-60 screen (SRB, 48 h); details: Homo sapiens
# [3] = system: NCI-H226 (NSC lung cancer); experiment: NCI-60 screen (SRB, 48 h); details: Homo sapiens
# DU-145 (Prostate cancer) = experiment: NCI-60 screen (SRB, 48 h); details: Homo sapiens
# SNB-75 (CNS cancer) = experiment: NCI-60 screen (SRB, 48 h); details: Homo sapiens
# OVCAR-3 (Ovarian cancer) = experiment: cells; details: Homo sapiens
# Breast cancer subpanel = experiment: NCI-60 screen, subpanel; details: Homo sapiens
# NSC lung cancer subpanel = experiment: NCI-60 screen, subpanel; details: Homo sapiens
# Melanoma subpanel = experiment: NCI-60 screen, subpanel; details: Homo sapiens
# [4] = system: NCI-H460 (NSC lung cancer); experiment: NCI-60 screen (SRB, 48 h); details: Homo sapiens
# MCF7 (Breast cancer) = experiment: NCI-60 screen (SRB, 48 h); details: Homo sapiens
# RXF 393 (Renal cancer) = experiment: NCI-60 screen (SRB, 48 h); details: Homo sapiens
# HOP-62 (NSC lung cancer) = experiment: NCI-60 screen (SRB, 48 h); details: Homo sapiens
# Renal Cancer subpanel = experiment: NCI-60 screen, subpanel; details: Homo sapiens
# UACC-62 (Melanoma) = experiment: NCI-60 screen (SRB, 48 h); details: Homo sapiens
# LOX IMVI (Melanoma) = experiment: NCI-60 screen (SRB, 48 h); assay type: cell-based; details: Homo sapiens
# UO-31 (Renal cancer) = experiment: NCI-60 screen (SRB, 48 h); details: Homo sapiens
# HCC-2998 (Colon cancer) = experiment: NCI-60 screen (SRB, 48 h); details: Homo sapiens
# M14 (Melanoma) = experiment: NCI-60 screen (SRB, 48 h); details: Homo sapiens
structure (smiles),measurement,setting,value
C=C(C)[C@@H]1CC[C@]2(C)[C@H](C=CC3=C4C[C@@](C)(CO)CC[C@]4(C)CC[C@]32C)[C@@]1(C)CCCN [Compound 20],GI50,SW-620 (Colon cancer); SW-620,1.56 µM
same,IC (TGI),"SW-620 (Colon cancer); SW-620, 48 h, read-out: TGI",3.04 µM
same,CC50,"SW-620 (Colon cancer); SW-620, read-out: LC50",5.93 µM
same,GI50,PC-3 (Prostate cancer); PC-3,1.7 µM
same,IC (TGI),"PC-3 (Prostate cancer); PC-3, 48 h, read-out: TGI",3.28 µM
same,CC50,"PC-3 (Prostate cancer); PC-3, read-out: LC50",6.33 µM
same,GI50,COLO 205 (Colon cancer); COLO 205,1.49 µM
same,IC (TGI),"COLO 205 (Colon cancer); COLO 205, 48 h, read-out: TGI",3.23 µM
same,CC50,"COLO 205 (Colon cancer); COLO 205, read-out: LC50",6.96 µM
same,GI50,[1],1.57 µM
same,IC (TGI),"[1]; 48 h, read-out: TGI",2.91 µM
same,CC50,[1]; read-out: LC50,5.43 µM
same,GI50,BT-549 (Breast cancer); BT-549,1.64 µM
same,IC (TGI),"BT-549 (Breast cancer); BT-549, 48 h",3.07 µM
same,CC50,"BT-549 (Breast cancer); BT-549, read-out: LC50 (the source's name)",5.78 µM
same,IC (TGI),"Ovarian Cancer subpanel; 48 h, read-out: TGI MG_MID",3.3 µM
same,GI50,Ovarian Cancer subpanel; read-out: GI50 MG_MID,1.69 µM
same,CC50,Ovarian Cancer subpanel; read-out: LC50 MG_MID,6.49 µM
same,GI50,SK-MEL-2 (Melanoma); SK-MEL-2,1.92 µM
same,IC (TGI),"SK-MEL-2 (Melanoma); SK-MEL-2, 48 h, read-out: TGI",3.58 µM
same,CC50,"SK-MEL-2 (Melanoma); SK-MEL-2, read-out: LC50",6.66 µM
same,Growth % of the Most Sensitive Cell Lines,ACHN (Renal cancer); 1 dose 10 µM,−94.94%
same,GI50,ACHN (Renal cancer); Homo sapiens,1.76 µM
same,IC (TGI),"ACHN (Renal cancer); Homo sapiens, 48 h, read-out: TGI",3.14 µM
same,CC50,"ACHN (Renal cancer); Homo sapiens, read-out: LC50",5.6 µM
same,GI50,A498 (Renal cancer); A498,1.54 µM
same,IC (TGI),"A498 (Renal cancer); A498, 48 h, read-out: TGI",2.9 µM
same,CC50,"A498 (Renal cancer); A498, read-out: LC50",5.44 µM
same,Positive Cytostatic Effect (cell lines with percent growth 0 to 50 / total),[2]; 1 dose 10 µM,8/60
same,Positive Cytotoxic Effect (cell lines with percent growth < 0 / total),[2]; 1 dose 10 µM,46/60
same,number of cancer cell lines the compound was active against,[2]; 1 dose 10 µM,52 cell lines
same,activity at 10 µM,"[2]; Homo sapiens, 48 h, read-out: Mean Growth, %",-36.5%
same,activity at 10 µM,"[2]; Homo sapiens, 48 h, read-out: Range of Growth, %",-100 to 90.8%
same,IC (TGI),"[2]; Homo sapiens, 48 h, read-out: TGI MG_MID60, average over all cell lines",3.36 µM
same,GI50,"[2]; Homo sapiens, read-out: GI50 MG_MID60",1.66 µM
same,GI50,"[2]; Homo sapiens, read-out: GI50 against all human tumor cell lines",< 3 µM
same,GI50,"[2]; Homo sapiens, read-out: GI50 against the most sensitive cell lines",0.2 to 0.94 µM
same,CC50,"[2]; Homo sapiens, read-out: LC50 MG_MID60, average over all cell lines",17.3 µM
same,GI50,SK-OV-3 (Ovarian cancer); SK-OV-3,1.72 µM
same,IC (TGI),"SK-OV-3 (Ovarian cancer); SK-OV-3, 48 h, read-out: TGI",3.17 µM
same,CC50,"SK-OV-3 (Ovarian cancer); SK-OV-3, read-out: LC50",5.85 µM
same,GI50,[3]; NCI-H226,1.85 µM
same,IC (TGI),"[3]; NCI-H226, 48 h, read-out: TGI",3.66 µM
same,GI50,DU-145 (Prostate cancer); DU-145,1.72 µM
same,IC (TGI),"DU-145 (Prostate cancer); DU-145, 48 h, read-out: TGI",3.15 µM
same,CC50,"DU-145 (Prostate cancer); DU-145, read-out: LC50",5.78 µM
same,GI50,SNB-75 (CNS cancer); SNB-75,1.53 µM
same,IC (TGI),"SNB-75 (CNS cancer); SNB-75, 48 h, read-out: TGI",2.97 µM
same,CC50,"SNB-75 (CNS cancer); SNB-75, read-out: LC50",5.77 µM
same,GI50,OVCAR-3 (Ovarian cancer); OVCAR-3,1.48 µM
same,IC (TGI),"OVCAR-3 (Ovarian cancer); OVCAR-3, 48 h, read-out: TGI",2.85 µM
same,CC50,"OVCAR-3 (Ovarian cancer); OVCAR-3, read-out: LC50",5.46 µM
same,IC (TGI),"Breast cancer subpanel; 48 h, read-out: TGI MG_MID",3.41 µM
same,GI50,Breast cancer subpanel; read-out: GI50 MG_MID,1.68 µM
same,CC50,Breast cancer subpanel; read-out: LC50 MG_MID,6.94 µM
same,IC (TGI),"NSC lung cancer subpanel; 48 h, read-out: TGI MG_MID",3.38 µM
same,GI50,NSC lung cancer subpanel; read-out: GI50 MG_MID,1.71 µM
same,CC50,NSC lung cancer subpanel; read-out: LC50 MG_MID,6.24 µM
same,IC (TGI),"Melanoma subpanel; 48 h, read-out: TGI MG_MID",3.22 µM
same,GI50,Melanoma subpanel; read-out: GI50 MG_MID,1.71 µM
same,CC50,Melanoma subpanel; read-out: LC50 MG_MID,6.09 µM
same,GI50,[4]; NCI-H460,1.71 µM
same,IC (TGI),"[4]; NCI-H460, 48 h, read-out: TGI",3.33 µM
same,CC50,"[4]; NCI-H460, read-out: LC50",6.49 µM
same,GI50,MCF7 (Breast cancer); MCF7,1.6 µM
same,IC (TGI),"MCF7 (Breast cancer); MCF7, 48 h, read-out: TGI",3.4 µM
same,CC50,"MCF7 (Breast cancer); MCF7, read-out: LC50",7.23 µM
same,GI50,RXF 393 (Renal cancer); RXF 393,1.62 µM
same,IC (TGI),"RXF 393 (Renal cancer); RXF 393, 48 h, read-out: TGI",3.07 µM
same,CC50,"RXF 393 (Renal cancer); RXF 393, read-out: LC50",5.81 µM
same,GI50,HOP-62 (NSC lung cancer); HOP-62,1.98 µM
same,IC (TGI),"HOP-62 (NSC lung cancer); HOP-62, 48 h, read-out: TGI",4.04 µM
same,IC (TGI),"Renal Cancer subpanel; 48 h, read-out: TGI MG_MID",3.07 µM
same,GI50,Renal Cancer subpanel; read-out: GI50 MG_MID,1.61 µM
same,CC50,Renal Cancer subpanel; read-out: LC50 MG_MID,5.86 µM
same,GI50,UACC-62 (Melanoma); UACC-62,1.78 µM
same,IC (TGI),"UACC-62 (Melanoma); UACC-62, 48 h, read-out: TGI",3.17 µM
same,CC50,"UACC-62 (Melanoma); UACC-62, read-out: LC50",5.66 µM
same,IC (TGI),LOX IMVI (Melanoma); 48 h,2.7 µM
same,activity at 10 µM,"LOX IMVI (Melanoma); 48 h, 1 dose 10 µM, read-out: Growth % of the Most Sensitive Cell Lines",-100%
same,GI50,LOX IMVI (Melanoma); read-out: GI50,1.37 µM
same,CC50,LOX IMVI (Melanoma); read-out: LC50 (the source's name),5.31 µM
same,GI50,UO-31 (Renal cancer); UO-31,1.34 µM
same,IC (TGI),"UO-31 (Renal cancer); UO-31, 48 h, read-out: TGI",2.65 µM
same,CC50,"UO-31 (Renal cancer); UO-31, read-out: LC50",5.24 µM
same,GI50,HCC-2998 (Colon cancer); HCC 2998,0.79 µM
same,IC (TGI),"HCC-2998 (Colon cancer); HCC 2998, 48 h, read-out: TGI",2.14 µM
same,CC50,"HCC-2998 (Colon cancer); HCC 2998, read-out: LC50",4.97 µM
same,GI50,M14 (Melanoma); M14,1.69 µM
same,IC (TGI),"M14 (Melanoma); M14, 48 h, read-out: TGI",3.34 µM
same,CC50,"M14 (Melanoma); M14, read-out: LC50",6.62 µM
